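The compound was tested at five concentrations on cells cultured in 96-well plates, with a 48-hour exposure period. GI50 is the concentration that inhibits growth by half.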 The source made the active and inactive calls. Cut-off read from the data, not from the text of the source: active = GI50 up to about 1.1 µM and inactive = higher.

Assay in all cases: NCI anticancer screen, dose series, 48 h
In test [1] the test system is 786-0.
Test [2] deals with CCRF-CEM.
The subject of test [3] is HCT-15.
The subject of test [4] is HOP-92.
The test system of test [5] is IGROV-1.
The subject of test [6] is KM12.
Test [7] deals with MCF7.
The subject of test [8] is MDA-N.
For test [9], the system named is NCI-H226.
The subject of test [10] is NCI-H23.
Test [11] deals with NCI-H460.
Test [12] deals with OVCAR-3.
Test [13] has as its system OVCAR-8.
The subject of test [14] is RPMI-8226.
Test [15] concerns SK-MEL-2.
For test [16], the system named is SN12C.
Test [17] deals with UO-31.
In test [18] the test system is Hs-578T.

Turning to `COC(=O)[C@H](C)N1C(=O)N[C@@H](C(C)C)C1=O`, the GI50 in test [1] was > 100 µM (inactive); in test [2], > 100 µM (inactive); in [3], above 100 µM; in test [4], > 100 µM (inactive); in [5], > 100 µM (inactive); in [6], > 100 µM (inactive). In addition, the GI50 in [7], in [8], in [9], in test [10], in test [11] and in test [12] was > 100 µM (inactive) throughout. Besides, the GI50 in test [13], in [14], in [15], in test [16] and in test [17] was > 100 µM (inactive) throughout.
Consider `CN1CCN(Cc2ccccc2)CC1CC#N` (stereo not drawn), for which the GI50 in test [1] was > 100 µM (inactive); in test [2], > 100 µM (inactive); in [3] it was above 100 µM; in test [5], > 100 µM (inactive); in test [6], > 100 µM (inactive); in [7], > 100 µM (inactive). For the same compound, the GI50 in [8], in test [9], in [10], in test [11], in [12] and in [13] was > 100 µM (inactive) throughout. The GI50 in [14], in test [16] and in test [17] was > 100 µM (inactive) each time.
On to `COC(=O)/C=C1\C(=O)Nc2ccc(Br)cc21`, for which the GI50 in test [1] was 1.48 µM (inactive); in test [2] it was 0.296 µM (active); in test [3], 1.16 µM; in [4], 1.88 µM (inactive); in test [18], 4.04 µM (inactive); in [5] it was 1.75 µM (inactive). In addition, the GI50 in test [6] was 2.53 µM (inactive); in test [7], 1.46 µM (inactive); in test [9] it was 1.72 µM (inactive); in [10] it was 1.54 µM (inactive); in [11] it was 2.25 µM (inactive); in test [12], 1.46 µM (inactive). Further, the GI50 in [13] was 2.14 µM (inactive); in test [14], 1.41 µM (inactive); in [15] it was 0.493 µM (active); in test [16], 1.62 µM (inactive); in [17] it was 2.19 µM (inactive).
Turning to `Clc1ccc(-c2nn3c(C45CC6CC(CC(C6)C4)C5)nnc3s2)cc1`, the GI50 in [1] was 35.7 µM (inactive); in [2] it was > 100 µM (inactive); in test [3] it was above 100 µM; in test [4], > 100 µM (inactive); in test [18], > 100 µM (inactive); in test [5] it was > 100 µM (inactive). Besides, the GI50 is > 100 µM (inactive) in test [6]; > 100 µM (inactive) in test [9]; > 100 µM (inactive) in [10]; > 100 µM (inactive) in test [11]; 39.1 µM (inactive) in [12]; > 100 µM (inactive) in test [14]. For the same compound, the GI50 in [15], in test [16] and in test [17] was > 100 µM (inactive) throughout.
In the case of `CC1CCN(C(C)C)P(=S)(Cc2ccccc2)O1` (stereo not drawn), the GI50 is > 100 µM (inactive) in test [1]; above 100 µM in [3]; > 100 µM (inactive) in test [5]; > 100 µM (inactive) in test [6]; > 100 µM (inactive) in test [7]; > 100 µM (inactive) in [9]. Also, the GI50 in test [10] is 92.9 µM (inactive); in test [11], > 100 µM (inactive); in test [12], 34.4 µM (inactive); in [13], > 100 µM (inactive); in [14], 99.8 µM (inactive); in [15], 44.3 µM (inactive). In test [17], the GI50 was > 100 µM (inactive).
With `CC1=CCS(=O)(=O)C1C(O)C1=C(C)CCCC1(C)C` (stereo not drawn), the GI50 in test [1] is > 100 µM (inactive); in [2], 71.3 µM (inactive); in test [3], above 100 µM; in [5] it was > 100 µM (inactive); in test [6], 59.7 µM (inactive); in test [7], 50.8 µM (inactive). Besides, the GI50 in test [8] was 63.1 µM (inactive); in test [9], > 100 µM (inactive); in test [10], > 100 µM (inactive); in test [12], 99.8 µM (inactive); in test [13], > 100 µM (inactive); in test [14], 14.3 µM (inactive). Moreover, the GI50 in [15] was > 100 µM (inactive); in test [16] it was > 100 µM (inactive); in test [17], 38.3 µM (inactive).
Consider `CC(C)(C)Cc1cc(O)ccc1O`, for which the GI50 is 63.5 µM (inactive) in test [1]; 26.5 µM (inactive) in [2]; 34.7 µM in [3]; > 100 µM (inactive) in test [4]; > 100 µM (inactive) in test [5]; 64.9 µM (inactive) in test [6]. Also, the GI50 was 74.8 µM (inactive) in [7]; 43.2 µM (inactive) in test [8]; > 100 µM (inactive) in test [9]; 77.3 µM (inactive) in test [10]; 63.4 µM (inactive) in [11]; 39.3 µM (inactive) in test [12]. Further, the results for the GI50 in [13], in test [16] and in test [17] were 53 µM (inactive), 51.3 µM (inactive) and > 100 µM (inactive), respectively.
Take `C[C@]12CC[C@H]3[C@@H](CC=C4C[C@@H](N5CCCC5)CC[C@@]43C)[C@@H]1C/C(=C\c1ccc([N+](=O)[O-])cc1)[C@@H]2O`: the GI50 is 5.77 µM (inactive) in test [1]; 3.21 µM (inactive) in test [2]; 13.8 µM in test [3]; 13 µM (inactive) in [4]; 18.5 µM (inactive) in [18]; 14.8 µM (inactive) in [5]. For the same compound, the GI50 in test [6] was 16.2 µM (inactive); in test [7], 20.7 µM (inactive); in test [9], 18.5 µM (inactive); in test [10], 19.7 µM (inactive); in test [11], 28.1 µM (inactive); in test [12] it was 17 µM (inactive). In addition, the GI50 in [14] is 16.1 µM (inactive); in test [15] it was > 10 µM (inactive); in test [16] it was 14.4 µM (inactive); in test [17], 15.1 µM (inactive).
Take `NS(=O)(=O)c1nn2c(Br)c(-c3ccccc3)nc2s1`: the GI50 was 2.45 µM (inactive) in test [1]; 2.65 µM (inactive) in test [2]; 2.86 µM in test [3]; 8.77 µM (inactive) in test [4]; 9.48 µM (inactive) in test [18]; 10.4 µM (inactive) in [5]. For the same compound, the GI50 was 4.85 µM (inactive) in test [6]; 3.95 µM (inactive) in test [7]; 1.91 µM (inactive) in [9]; 3.48 µM (inactive) in test [10]; 5.98 µM (inactive) in test [11]; 4.49 µM (inactive) in test [12]. The GI50 in test [13] was 2.38 µM (inactive); in test [14], 2.39 µM (inactive); in test [15], 4.52 µM (inactive); in test [16], 2.92 µM (inactive); in test [17], 4.02 µM (inactive).
In the case of `COC(O)C(=O)c1c2c(cc3c1CC1(Cc4cc5c(cc4C1)CCC5)C3)CCC2` (stereo not drawn), the GI50 is 14 µM (inactive) in [1]; 4.33 µM (inactive) in test [2]; 20.7 µM in [3]; 15.7 µM (inactive) in [4]; 20.4 µM (inactive) in [18]; 13 µM (inactive) in test [5]. The GI50 was 16 µM (inactive) in test [7]; 16.4 µM (inactive) in [10]; 23.6 µM (inactive) in test [11]; 15.6 µM (inactive) in test [12]; 18.3 µM (inactive) in test [13]; 8.02 µM (inactive) in test [14]. Also, the GI50 is 16 µM (inactive) in test [15] and 18.7 µM (inactive) in test [17].
Consider `CN(C)c1ccc(/C=N/NC2=N/C(=C\c3ccco3)C(=O)N2)cc1`, for which the GI50 is > 100 µM (inactive) in test [1]; > 100 µM (inactive) in test [2]; above 100 µM in test [3]; > 100 µM (inactive) in test [4]; > 100 µM (inactive) in test [18]; > 100 µM (inactive) in test [5]. For the same compound, the GI50 in [6], in test [8], in [9], in [10], in test [11] and in test [12] was > 100 µM (inactive) in each case. Further, the GI50 in [13], in [14], in [15], in test [16] and in [17] was > 100 µM (inactive) throughout.
Turning to `Cc1cc2[nH]c3c(C#N)c(-c4ccccc4)c(/C=N/c4ccc(F)cc4)c(=O)n3c2cc1C`, the GI50 in [1] was > 100 µM (inactive); in test [2], > 100 µM (inactive); in [3] it was above 100 µM; in test [5], > 100 µM (inactive); in [6], 68.5 µM (inactive); in test [7], 86.9 µM (inactive). The GI50 was 59.7 µM (inactive) in test [8]; 69.7 µM (inactive) in test [9]; > 100 µM (inactive) in test [10]; > 100 µM (inactive) in [11]; 39.4 µM (inactive) in test [12]; > 100 µM (inactive) in [13]. For the same compound, the GI50 in [14], in test [15], in test [16] and in test [17] was > 100 µM (inactive) in each case.
With `C/C(=C\COP(=O)(O)OP(=O)(O)O)CCCOCc1ccccc1`, the GI50 in test [1] is > 100 µM (inactive); in test [2], < 0.01 µM (active); in test [3] it was above 100 µM; in test [18], > 100 µM (inactive); in [5], > 100 µM (inactive); in test [6], > 100 µM (inactive). Further, the GI50 in test [7], in test [9], in test [10], in test [11], in [12] and in test [13] was > 100 µM (inactive) throughout. For the same compound, the GI50 in test [14] was 0.207 µM (active); in test [15] it was > 100 µM (inactive); in test [16], > 100 µM (inactive); in [17] it was > 100 µM (inactive).

(Values after ChEMBL document CHEMBL1201862, “PubChem BioAssay data set” (2004).)
